Reference: ChEMBL document CHEMBL5346873, “Strategic modification of low-activity natural antimicrobial peptides confers antibacterial potential in vitro and in vivo” (Eur J Med Chem, 2023)
Values after ≈ are worked out from the molar mass of the structure shown.

Key:
Assay type in all cases: functional
Klebsiella pneumoniae [1] = experiment: Antibacterial activity against NDM Klebsiella pneumoniae incubated for 16 to 20 hrs; conditions: time 16-20 hrs
Streptococcus agalactiae [2] = experiment: Antibacterial activity against Streptococcus agalactiae incubated for 16 to 20 hrs; conditions: time 16-20 hrs
Acinetobacter baumannii = experiment: Antibacterial activity against Acinetobacter baumannii
Pseudomonas aeruginosa [3] = experiment: Antibacterial activity against Pseudomonas aeruginosa incubated for 16 to 20 hrs; conditions: time 16-20 hrs
Streptococcus iniae [4] = experiment: Antibacterial activity against Streptococcus iniae incubated for 16 to 20 hrs; conditions: time 16-20 hrs
Klebsiella aerogenes [5] = experiment: Antibacterial activity against Enterobacter aerogenes incubated for 16 to 20 hrs; conditions: time 16-20 hrs
Escherichia coli [6] = experiment: Antibacterial activity against Escherichia coli incubated for 16 to 20 hrs; conditions: time 16-20 hrs
Vibrio vulnificus [7] = experiment: Antibacterial activity against Vibrio vulnificus 204 incubated for 16 to 20 hrs; conditions: time 16-20 hrs
Vibrio vulnificus [8] = experiment: Antibacterial activity against Vibrio vulnificus 204 assessed as induction of resistance development by measuring fold increase in MIC measured after 15 passages
Klebsiella aerogenes [9] = experiment: Bactericidal activity against Enterobacter aerogenes incubated overnight
Aeromonas hydrophila [10] = experiment: Antibacterial activity against Aeromonas hydrophila incubated for 16 to 20 hrs; conditions: time 16-20 hrs
Vibrio anguillarum [11] = experiment: Antibacterial activity against Listonella anguillarum incubated for 16 to 20 hrs; conditions: time 16-20 hrs
Klebsiella pneumoniae [12] = experiment: Bactericidal activity against NDM Klebsiella pneumoniae incubated overnight
Vibrio vulnificus [13] = experiment: Antibacterial activity against Vibrio vulnificus V3 incubated for 16 to 20 hrs; conditions: time 16-20 hrs
[14] = tested on: Staphylococcus haemolyticus; experiment: Antibacterial activity against Staphylococcus haemolyticus incubated for 16 to 20 hrs; conditions: time 16-20 hrs
Pseudomonas aeruginosa [15] = experiment: Bactericidal activity against Pseudomonas aeruginosa incubated overnight
Candida tropicalis [16] = experiment: Fungicidal activity against Candida tropicalis incubated overnight
Enterococcus faecium [17] = experiment: Antibacterial activity against Enterococcus faecium incubated for 16 to 20 hrs; conditions: time 16-20 hrs
Enterococcus faecalis [18] = experiment: Antibacterial activity against Enterococcus faecalis incubated for 16 to 20 hrs; conditions: time 16-20 hrs
Streptococcus agalactiae [19] = experiment: Bactericidal activity against Streptococcus agalactiae incubated overnight
Klebsiella oxytoca [20] = experiment: Antibacterial activity against Klebsiella oxytoca incubated for 16 to 20 hrs; conditions: time 16-20 hrs
Nakaseomyces glabratus [21] = experiment: Antifungal activity against Candida glabrata incubated for 16 to 20 hrs; conditions: time 16-20 hrs
Vibrio harveyi [22] = experiment: Bactericidal activity against Vibrio harveyi incubated overnight
Edwardsiella tarda [23] = experiment: Antibacterial activity against Edwardsiella tarda incubated for 16 to 20 hrs; conditions: time 16-20 hrs
Vibrio alginolyticus [24] = experiment: Bactericidal activity against Vibrio alginolyticus incubated overnight
[25] = tested on: Staphylococcus haemolyticus; experiment: Bactericidal activity against Staphylococcus haemolyticus incubated overnight
Klebsiella oxytoca [26] = experiment: Bactericidal activity against Klebsiella oxytoca incubated overnight
Vibrio vulnificus [27] = experiment: Bactericidal activity against Vibrio vulnificus 204 incubated overnight
Vibrio alginolyticus [28] = experiment: Antibacterial activity against Vibrio alginolyticus incubated for 16 to 20 hrs; conditions: time 16-20 hrs
Vibrio anguillarum [29] = experiment: Bactericidal activity against Listonella anguillarum incubated overnight
Aeromonas hydrophila [30] = experiment: Bactericidal activity against Aeromonas hydrophila incubated overnight
Salmonella typhimurium [31] = experiment: Bactericidal activity against Salmonella typhimurium incubated overnight; conditions: Salmonella enterica subsp. enterica serovar Typhimurium
Enterococcus faecium [32] = experiment: Bactericidal activity against Enterococcus faecium incubated overnight
Vibrio harveyi [33] = experiment: Antibacterial activity against Vibrio harveyi incubated for 16 to 20 hrs; conditions: time 16-20 hrs
Vibrio vulnificus [34] = experiment: Antibacterial activity against Vibrio vulnificus V1 incubated for 16 to 20 hrs; conditions: time 16-20 hrs
Vibrio vulnificus [35] = experiment: Bactericidal activity against Vibrio vulnificus V2 incubated overnight
Vibrio vulnificus [36] = experiment: Bactericidal activity against Vibrio vulnificus V3 incubated overnight
Candida tropicalis [37] = experiment: Antifungal activity against Candida tropicalis incubated for 16 to 20 hrs; conditions: time 16-20 hrs
Salmonella enterica [38] = experiment: Antibacterial activity against Salmonella enterica incubated for 16 to 20 hrs; conditions: time 16-20 hrs
Vibrio vulnificus [39] = experiment: Bactericidal activity against Vibrio vulnificus V1 incubated overnight
Streptococcus iniae [40] = experiment: Bactericidal activity against Streptococcus iniae incubated overnight
Salmonella enterica [41] = experiment: Bactericidal activity against Salmonella enterica incubated overnight
Nakaseomyces glabratus [42] = experiment: Fungicidal activity against Candida glabrata incubated overnight
Escherichia coli [43] = experiment: Bactericidal activity against Escherichia coli incubated overnight
Edwardsiella tarda [44] = experiment: Bactericidal activity against Edwardsiella tarda incubated overnight
Vibrio vulnificus [45] = experiment: Antibacterial activity against Vibrio vulnificus V2 incubated for 16 to 20 hrs; conditions: time 16-20 hrs
Salmonella typhimurium [46] = experiment: Antibacterial activity against Salmonella typhimurium incubated for 16 to 20 hrs; conditions: Salmonella enterica subsp. enterica serovar Typhimurium; time 16-20 hrs
Enterococcus faecalis [47] = experiment: Bactericidal activity against Enterococcus faecalis incubated overnight

## C[C@@H](O)[C@H]1C(=O)N2C(C(=O)O)=C(S[C@@H]3CN[C@H](C(=O)N(C)C)C3)[C@H](C)[C@H]12 [MEROPENEM]
Klebsiella pneumoniae [1]
  MIC: 200 µg/mL (≈ 522 µM)
Streptococcus agalactiae [2]
  MIC: 0.024 µg/mL (≈ 0.0626 µM)
Acinetobacter baumannii
  MIC: 0.39 µg/mL (≈ 1.02 µM)
Pseudomonas aeruginosa [3]
  MIC: 0.39 µg/mL (≈ 1.02 µM)
Streptococcus iniae [4]
  MIC: 0.39 µg/mL (≈ 1.02 µM)
Klebsiella aerogenes [5]
  MIC: 0.024 µg/mL (≈ 0.0626 µM)
Escherichia coli [6]
  MIC: 0.012 µg/mL (≈ 0.0313 µM)
Vibrio vulnificus [7]
  MIC: 0.024 µg/mL (≈ 0.0626 µM)

## CN(C)[C@@H]1C(O)=C(C(N)=O)C(=O)[C@@]2(O)C(O)=C3C(=O)c4c(O)cccc4[C@@](C)(O)[C@H]3C[C@@H]12 [TETRACYCLINE]
Vibrio vulnificus [8]
  fold change (FC): 128

## COLISTIN
Klebsiella pneumoniae [1]
  MIC: < 1.56 µg/mL
Klebsiella aerogenes [9]
  MBC: < 1.56 µg/mL
Aeromonas hydrophila [10]
  MIC: 100 µg/mL
Vibrio anguillarum [11]
  MIC: < 1.56 µg/mL
Streptococcus agalactiae [2]
  MIC: 50 µg/mL
Klebsiella pneumoniae [12]
  MBC: < 1.56 µg/mL
Vibrio vulnificus [13]
  MIC: 50 µg/mL
[14]
  MIC: 3.12 µg/mL
Pseudomonas aeruginosa [15]
  MBC: < 1.56 µg/mL
Candida tropicalis [16]
  MFC: 12.5 µg/mL
Enterococcus faecium [17]
  MIC: > 100 µg/mL
Enterococcus faecalis [18]
  MIC: < 1.56 µg/mL
Streptococcus agalactiae [19]
  MBC: 50 µg/mL
Klebsiella oxytoca [20]
  MIC: 12.5 µg/mL
Nakaseomyces glabratus [21]
  MIC: > 100 µg/mL
Vibrio harveyi [22]
  MBC: > 100 µg/mL
Edwardsiella tarda [23]
  MIC: 6.25 µg/mL
Vibrio alginolyticus [24]
  MBC: 3.12 µg/mL
[25]
  MBC: 3.12 µg/mL
Klebsiella oxytoca [26]
  MBC: 12.5 µg/mL
Pseudomonas aeruginosa [3]
  MIC: < 1.56 µg/mL
Vibrio vulnificus [27]
  MBC: > 100 µg/mL
Streptococcus iniae [4]
  MIC: 12.5 µg/mL
Klebsiella aerogenes [5]
  MIC: < 1.56 µg/mL
Vibrio alginolyticus [28]
  MIC: 3.12 µg/mL
Vibrio anguillarum [29]
  MBC: 6.25 µg/mL
Aeromonas hydrophila [30]
  MBC: > 100 µg/mL
Salmonella typhimurium [31]
  MBC: < 1.56 µg/mL
Enterococcus faecium [32]
  MBC: > 100 µg/mL
Vibrio harveyi [33]
  MIC: > 100 µg/mL
Vibrio vulnificus [8]
  fold change (FC): 16
Vibrio vulnificus [34]
  MIC: 50 µg/mL
Vibrio vulnificus [35]
  MBC: 50 µg/mL
Vibrio vulnificus [36]
  MBC: 50 µg/mL
Candida tropicalis [37]
  MIC: 12.5 µg/mL
Salmonella enterica [38]
  MIC: < 1.56 µg/mL
Vibrio vulnificus [39]
  MBC: 50 µg/mL
Streptococcus iniae [40]
  MBC: 25 µg/mL
Escherichia coli [6]
  MIC: < 1.56 µg/mL
Salmonella enterica [41]
  MBC: < 1.56 µg/mL
Nakaseomyces glabratus [42]
  MFC: > 100 µg/mL
Escherichia coli [43]
  MBC: < 1.56 µg/mL
Edwardsiella tarda [44]
  MBC: 6.25 µg/mL
Vibrio vulnificus [45]
  MIC: 50 µg/mL
Salmonella typhimurium [46]
  MIC: < 1.56 µg/mL
Enterococcus faecalis [47]
  MBC: 50 µg/mL
Vibrio vulnificus [7]
  MIC: 25 µg/mL
